From patent US20230145643A1, “AGENTS FOR USE IN THE THERAPEUTIC OR PROPHYLACTIC TREATMENT OF RETINAL PIGMENT EPITHELIUM ASSOCIATED DISEASES” (priority 2020, published 2023)
“And” between values parts separate entries of the source, which are not always exact repeats. Equal entries are not always repeated. Where two headings read alike, the source gives them in different places.

Experiments:
guinea pig eyes = experiment: Toxicity test of intravitreally administered amphiregulin (guinea pigs); format: in vivo
Description: Methods and Material: Two to three-week old guinea pigs were divided into four groups:
animals that received an intravitreal administration of amphiregulin (dose: 10 ng in 5 μl) into one eye and an intravitreal administration of vehicle into the contralateral eye (n=4),
animals that received an intravitreal administration of amphiregulin (dose: 10 ng in 5 μl) into both eyes (n=4),
an animal that received intravitreal administration of amphiregulin (dose: 10 ng in 5 μl) into one eye with the contralateral eye left untreated (n=1), and
animals with both eyes left intact (n=2).
All animals were treated in accordance with the ARVO (association for Research in Vision and Ophthalmology) Statement for the Use of Animals in Ophthalmic and Vision Research and the EC Directive 86/609/EEC for animal experiments. The animals were housed at a constant temperature (22±1° C.) and in a light-controlled environment (lights on from 7 am to 7 pm) with ad libitum access to food and water.
All animals with injections received two intravitreal injections at an interval of ten days.
At each time point, the eyes were inspected for signs of toxicity. Ten days after the second injection, the animals were sacrificed by an overdose of anesthetics. Ocular biometry was performed at baseline, prior to each injection, and prior to the sacrifice of animals. The sonographic ocular biometry was performed using Aviso, The Ultrasound Platform (Quantel Medical, France) under general anesthesia, on the follow-up days 15, 25, 35 and prior the sacrifice on day 45.
After the sacrifice, the eyes of the animals were removed, post-fixed overnight in 4% paraformaldehyde, and embedded in optimal cutting temperature compound, cryosectioned and immunostained against glial activation marker (glial fibrillary acidic protein), microglial cell marker (lba-1), native guinea pig amphiregulin, and injected amphiregulin; or they were embedded in paraffin, sectioned and stained with hematoxylin and eosin for general histologic examination and histomorphometric retinal thickness measurements. In addition, the tissue was stained for apoptotic cell death detection applying the TUNEL method.

bovine RPE cell [1] = conditions: bovine RPE cells after incubation with growth factor; cited from earlier work
bovine RPE cell [2] = conditions: bovine RPE cells; cited from earlier work
RPE D407 cells = conditions: through both PI3K and ERK/MAPK pathways; cited from earlier work
adult rabbits' eyes = experiment: Toxicity test of intravitreally administered EGF (rabbits); format: in vivo, rabbit; conditions: for Intraocular pressure (IOP): injected right eye (OD), 100 ng EGF intravitreal
Description: The injections were performed in the upper right quadrant of the eyes in a distance of 3-4 mm from the limbus. At baseline of the study, and at specific dates after the injection the animals were examined using photography of the external eye and anterior and posterior segment of the eye, tonometry, optical coherence tomography (OCT) of the posterior fundus, and fundus photography. Four weeks after a third injection, the animals were sacrificed and the globes were histomorphometrically examined.
After sacrificing the animals, the eyes were enucleated, immediately fixed in a solution of 1% glutaraldehyde and 4% formaldehyde, and kept in that solution for seven days at room temperature. The sagittal, vertical and horizontal globe diameter were subsequently measured. A central segment with a thickness of about 8 mm and running through the optic nerve head and the pupil was cut out of the fixed globes, dehydrated in alcohol, imbedded in paraffin, sectioned for light microscopy with a slide thickness of 4-6 μm, and stained with hematoxylin eosin.
The cell number in the three retinal layers containing cell nuclei was counted. The slides for apoptotic cell death were additionally stained using the TUNEL (terminal deoxynucleotidyl transferase dUTP nick end labeling) technique.

[3] = tested on: eyes of AMD patients (geographic atrophy); experiment: Series of seven AMD patients treated with intravitreal EGF; format: in vivo, human
Description: A series of seven patients were consecutively treated. […] The patients underwent weekly to two-weekly ophthalmological follow-up examinations. Three patients (patients #1, 2, and 3) received a repeated intravitreal injection after an interval of three to four weeks.

ARPE-19 cell line [4] = experiment: RPE cell proliferation (scanning spectrophotometer); format: cell-based, human; conditions: dose-dependent; EGF 0.1, 10, 100 μg/L; EGF antibody 0.01, 1.0, 10 mg/L; PBS control
Description: (§1) Materials and Methods: The human ARPE-19 cell line was cultured in a standardized culture medium and incubated at 37° C. under 5% CO2. […] We examined the RPE cell proliferation using of a scanning spectrophotometer. In a second step, we examined the cell migration by a scratch assay.

ARPE-19 cell line [5] = experiment: RPE cell migration (scratch assay); format: cell-based, human; conditions: dose-dependent; EGF 0.1, 10, 100 μg/L; EGF antibody 0.01, 1.0, 10 mg/L; PBS control
Description: as §1

EGFR = EGFR signaling via the PI3K/Akt pathway in RPE culture; format: cell-based; conditions: addition of EGF
[6] = tested on: EGF-EGFR-MAPK signal transduction pathway; conditions: human RPE cells in culture; concentration-dependent manner; cited from earlier work
[7] = tested on: eye of patient with geographic atrophy; format: in vivo, human; conditions: for foveolar zone thickness upon optical coherence tomography: 69 μm at baseline
Description: Optical coherence tomography images of the fundus signs were unchanged. • On the 7th day after the injection, the eye appeared to be untouched, the conjunctival injection had subsided. Visual acuity had improved from 0.03 before the injection to 0.1. […] Upon optical coherence tomography, the foveolar zone increased in thickness from 69 μm at baseline to 71 μm at seven days after the injection, and to 73 μm two weeks later (FIGS. 3a, b).

[8] = injected eyes vs eyes injected with PBS or untouched eyes
[9] = after the repeated intravitreal injections
[10] = 0.75 μg EGF intravitreal, one line per patient (1-7)

Substance: Amphiregulin
- animal weight (guinea pig eyes; four groups, 10 ng in 5 μl intravitreal, two injections at ten days interval): did not differ in their weight at any time point analyzed
- TUNEL positive cell numbers (guinea pig eyes; [8]): No significant increase
- microglial infiltration (guinea pig eyes; [8]): No significant increase
- retinal gliosis (guinea pig eyes; [8]): No significant increase
- intraocular inflammatory or toxic effect (guinea pig eyes; repeatedly intravitreally applied, guinea pigs (summary)): did not result in an intraocular inflammatory or toxic effect

Substance: platelet-derived growth factor [PDGF]
- RPE cell migration (bovine RPE cell [1]): significantly enhanced
- RPE cell DNA synthesis (bovine RPE cell [2]): stimulated

Substance: epidermal growth factor [EGF]
- survival of RPE D407 cells (RPE D407 cells): stimulated survival of RPE D407 cells
- change in intraocular pressure (IOP) as measured by tonometry (adult rabbits' eyes; [9]): No significant change
- change in retinal thickness as measured by OCT (adult rabbits' eyes; [9]): No significant change
- Intraocular pressure (IOP) (adult rabbits' eyes; 5 Dec. 2018): 6 mmHg
- Intraocular pressure (IOP) (adult rabbits' eyes; 29 Dec. 2018): 8 mmHg
- cell count of the retinal layers (histomorphometry) (adult rabbits' eyes; injected vs contralateral eyes, posterior pole, midpoint, equator, ora serrata region, all P-values>0.20): did not differ significantly
- apoptotic cells in TUNEL staining (adult rabbits' eyes; rabbit eyes): neither in the right eyes or in the left eyes, apoptotic cells were detected
- intravital examinations of the external eye and the anterior segment (toxicity, cataract) (adult rabbits' eyes; rabbits, repeated intravitreal injections): did not reveal any sign of toxicity or development of cataract
- intraocular inflammatory or toxic effect (adult rabbits' eyes; repeatedly intravitreally applied, rabbits (summary)): did not result in an intraocular inflammatory or toxic effect
- Visual Acuity (Decimal) at last examination ([3]; 0.75 μg EGF in 50 μl intravitreal, one line per patient (1-7), follow-up one to seven weeks): 0.09 and 0.03 and 0.06 and 0.1 (2×) and 0.08 and 0.05
- Intraocular Pressure [3, 10]: 17 mmHg and 16 mmHg
- Quality of vision [3, 10]: Improved
- Improvement in ETDRS letters ([3]; 0.75 μg EGF intravitreal, one line per patient (1-7), last examination vs before injection): 3 ETDRS letters and 8 ETDRS letters and 9 ETDRS letters and 26 ETDRS letters and 6 ETDRS letters and 11 ETDRS letters and 0 ETDRS letters
- side effects ([3]; besides conjunctival vessel dilatation or circumscribed subconjunctival hemorrhage at the site of the injection): no other side effects were noted
- intraocular pressure after injection, upper bound in all eyes ([3]; none of the eyes beyond this value): ≤ 21 mmHg
- patients with improvement in measured visual acuity ([3]; out of seven patients, follow-up one week to seven weeks): six showed an improvement in their measured visual acuity
- visual function and macular morphology ([3]; patients with geographic atrophy, intravitreal application (summary of Examples 1 and 2)): improvement in visual function and macular morphology
- intraocular tolerability ([3]; patients, intravitreal application (summary statement)): well tolerated intraocularly without signs of intraocular inflammation or toxicity
- cells in the anterior chamber fluid or vitreous cavity (slit lamp-based biomicroscopy) ([3]; seven patients): In none of the eyes
- central visual field (perimetry) ([3]; seven patients): also improved
- hemorrhages or other newly developed pathologies in the retina ([3]; seven patients): none of the eyes revealed hemorrhages or other newly developed pathologies in the retina
- signs of intraocular inflammation, lens opacification, optic media clarity, intraocular pressure change ([3]; seven patients): no signs of intraocular inflammation, lens opacification, changes in the clarity of the optic media, or any significant change in intraocular pressure
- thickness of the tissue in the foveolar region (fundus examination, OCT) ([3]; seven patients): tendency of an increase
- ARPE-19 cell proliferation (ARPE-19 cell line [4]): increased with higher concentrations
- ARPE-19 cell migration (ARPE-19 cell line [5]): increased with higher concentrations
- RPE cell migration (bovine RPE cell [1]): significantly enhanced
- RPE cell DNA synthesis (bovine RPE cell [2]): stimulated
- EGFR signaling via the PI3K/Akt pathway (EGFR): caused an increase
- EGF-EGFR-MAPK signal transduction pathway induction [6]: induces the EGF-EGFR-MAPK (mitogen-activated protein kinase) signal transduction pathway
- subjective vision ([7]; 7th day after the injection): marked improvement in vision
- Visual acuity ([7]; 7th day after the injection, 0.03 before the injection): 0.1
- light differential sensitivity in the central zone (computer perimetry) ([7]; after injection, central four measurement points, 11.3 dB before): 24.8 dB per measurement point
- Intraocular Pressure ([7]; human, in vivo): unchanged within normal limits
- conjunctival injection ([7]; human, in vivo): had subsided
- finding on the surface of the eye ([7]; human, in vivo): mixed moderate conjunctival injection
- pathological reactions of the anterior segment of the eye ([7]; human, in vivo): no pathological reactions
- foveolar zone thickness upon optical coherence tomography ([7]; seven days after the injection): 71 μm
- central visual acuity ([7]; third day after injection): unchanged
- optical coherence tomography images of the fundus ([7]; third day after injection): unchanged
- peripheral vision ([7]; third day after injection): remained unchanged
- subjective vision (metamorphopsias) ([7]; third day after injection): the distortions and curvatures of objects (metamorphopsias) disappeared
- foveolar zone thickness upon optical coherence tomography ([7]; two weeks later): 73 μm

Substance: insulin-like growth factor-1 [IGF-1]
- RPE cell migration (bovine RPE cell [1]): significantly enhanced

Substance: basic fibroblast growth factor [bFGF]
- RPE cell migration (bovine RPE cell [1]): significantly enhanced
- RPE cell DNA synthesis (bovine RPE cell [2]): stimulated

Substance: acidic fibroblast growth factor [aFGF]
- RPE cell migration (bovine RPE cell [1]): significantly enhanced
- RPE cell DNA synthesis (bovine RPE cell [2]): stimulated
